Patent US20240116921A1, “LACTAM (HETERO)[…] DERIVATIVES AS INHIBITORS OF ERBB2” (EnLiven Therapeutics, Inc., priority 2020, published 2024)

Assays:
[1] = target: Ba/F3 ERBB2-T798M (Homo sapiens, UniProt P04626, T798M, cells depend on it); assay: Cell viability assay, Ba/F3 ERBB2-T798M; assay type: cell-based, mouse; conditions: 72 hours, CellTiter Glo, read-out: IC50, cell viability, Ba/F3 ERBB2-T798M
Protocol: (§1) Cells were treated with compounds, and cell viability was measured as a metric of kinase inhibition.
(§2) The Ba/F3 cell line is IL-3-dependent mouse cell line derived from the C3H mouse strain. Ba/F3 cell lines were engineered to express human ERBB2 or EGFR kinases, rendering the cells IL-3 independent. The lines were generated via retroviral transduction utilizing a Moloney murine leukemia virus (MMLV) promoter, and constructs are stably integrated into the cell genome. The sequences of the ERBB2 and EGFR genes used were NCBI Reference Sequences NM_004448.3 and NM_005228.3, respectively.
(§3) Similarly, Ba/F3 cell lines engineered to express EGFR, ERBB2, or ERBB2 mutants were grown, harvested, counted and seeded at 3000 cells per well in 96-well plates. A subset of wells contained media only (low control, “LC”).
(§4) Table B1 provides the growth media and number of cells seeded per well for the each cell line.
(§5) Plates were placed in a 37° C., 5% CO2 incubator for 72 hours. Plates were then removed from the incubator and equilibrated for 15 minutes at room temperature. 40 μl of CellTiter Glo reagent (Promega) was added to measure the relative level of metabolically active cells by quantifying intracellular ATP concentrations. Plates were incubated for 30 minutes at room temperature, and luminescence was measured. Percent viability was normalized to a vehicle control only using the following formula: % viability=100×(Lumsample−LumLC)/(LumHC−Lum^LC). Graphical curves were fitted using a nonlinear regression model with a sigmoidal dose response.

[2] = target: Ba/F3 ERBB2 wt (Homo sapiens, UniProt P04626); assay: Cell viability assay, Ba/F3 ERBB2 wt; assay type: cell-based, mouse; conditions: Ba/F3 ERBB2 wt cells, 72 hours, CellTiter Glo; read-out: IC50, cell viability, Ba/F3 ERBB2 wt
Sequence of Ba/F3 ERBB2 wt (P04626 whole entry, change not shown): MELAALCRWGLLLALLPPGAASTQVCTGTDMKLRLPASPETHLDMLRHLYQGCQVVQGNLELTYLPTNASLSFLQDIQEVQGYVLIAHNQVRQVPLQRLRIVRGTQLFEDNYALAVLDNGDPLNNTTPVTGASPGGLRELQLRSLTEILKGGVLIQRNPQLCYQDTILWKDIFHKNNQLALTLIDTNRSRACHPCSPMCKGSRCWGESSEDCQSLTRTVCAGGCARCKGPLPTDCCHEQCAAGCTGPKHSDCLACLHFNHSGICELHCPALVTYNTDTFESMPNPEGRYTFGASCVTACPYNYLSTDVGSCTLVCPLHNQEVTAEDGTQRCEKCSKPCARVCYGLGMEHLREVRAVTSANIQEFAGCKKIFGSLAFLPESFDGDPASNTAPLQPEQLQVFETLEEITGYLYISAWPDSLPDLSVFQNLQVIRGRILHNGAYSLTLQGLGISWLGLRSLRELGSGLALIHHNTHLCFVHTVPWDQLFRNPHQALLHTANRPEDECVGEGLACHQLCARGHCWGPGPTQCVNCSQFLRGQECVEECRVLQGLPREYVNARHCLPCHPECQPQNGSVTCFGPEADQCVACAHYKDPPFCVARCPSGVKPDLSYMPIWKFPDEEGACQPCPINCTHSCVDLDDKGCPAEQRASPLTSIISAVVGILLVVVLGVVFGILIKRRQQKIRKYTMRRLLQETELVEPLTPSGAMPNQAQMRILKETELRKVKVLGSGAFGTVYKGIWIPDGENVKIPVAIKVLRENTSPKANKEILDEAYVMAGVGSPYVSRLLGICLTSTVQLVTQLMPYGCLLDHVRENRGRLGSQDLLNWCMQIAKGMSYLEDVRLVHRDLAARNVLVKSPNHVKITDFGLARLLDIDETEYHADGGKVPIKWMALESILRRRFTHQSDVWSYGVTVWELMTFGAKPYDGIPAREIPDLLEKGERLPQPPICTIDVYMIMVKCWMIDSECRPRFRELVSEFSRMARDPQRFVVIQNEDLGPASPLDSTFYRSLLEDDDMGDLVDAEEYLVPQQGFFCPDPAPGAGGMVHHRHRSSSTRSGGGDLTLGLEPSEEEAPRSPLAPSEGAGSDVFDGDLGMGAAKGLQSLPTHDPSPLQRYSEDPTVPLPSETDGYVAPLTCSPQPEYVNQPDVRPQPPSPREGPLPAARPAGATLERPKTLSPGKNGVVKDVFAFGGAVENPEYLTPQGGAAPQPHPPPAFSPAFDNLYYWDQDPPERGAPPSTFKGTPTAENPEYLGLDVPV
Protocol: as §1, §2, §3, §4, §5

[3] = target: Ba/F3 ERBB2-L755S (Homo sapiens, UniProt P04626, L755S, cells depend on it); assay: Cell viability assay, Ba/F3 ERBB2-L755S; assay type: cell-based, mouse; conditions: 72 hours, CellTiter Glo, read-out: IC50, cell viability, Ba/F3 ERBB2-L755S
Sequence of Ba/F3 ERBB2-L755S (P04626 whole entry L755S): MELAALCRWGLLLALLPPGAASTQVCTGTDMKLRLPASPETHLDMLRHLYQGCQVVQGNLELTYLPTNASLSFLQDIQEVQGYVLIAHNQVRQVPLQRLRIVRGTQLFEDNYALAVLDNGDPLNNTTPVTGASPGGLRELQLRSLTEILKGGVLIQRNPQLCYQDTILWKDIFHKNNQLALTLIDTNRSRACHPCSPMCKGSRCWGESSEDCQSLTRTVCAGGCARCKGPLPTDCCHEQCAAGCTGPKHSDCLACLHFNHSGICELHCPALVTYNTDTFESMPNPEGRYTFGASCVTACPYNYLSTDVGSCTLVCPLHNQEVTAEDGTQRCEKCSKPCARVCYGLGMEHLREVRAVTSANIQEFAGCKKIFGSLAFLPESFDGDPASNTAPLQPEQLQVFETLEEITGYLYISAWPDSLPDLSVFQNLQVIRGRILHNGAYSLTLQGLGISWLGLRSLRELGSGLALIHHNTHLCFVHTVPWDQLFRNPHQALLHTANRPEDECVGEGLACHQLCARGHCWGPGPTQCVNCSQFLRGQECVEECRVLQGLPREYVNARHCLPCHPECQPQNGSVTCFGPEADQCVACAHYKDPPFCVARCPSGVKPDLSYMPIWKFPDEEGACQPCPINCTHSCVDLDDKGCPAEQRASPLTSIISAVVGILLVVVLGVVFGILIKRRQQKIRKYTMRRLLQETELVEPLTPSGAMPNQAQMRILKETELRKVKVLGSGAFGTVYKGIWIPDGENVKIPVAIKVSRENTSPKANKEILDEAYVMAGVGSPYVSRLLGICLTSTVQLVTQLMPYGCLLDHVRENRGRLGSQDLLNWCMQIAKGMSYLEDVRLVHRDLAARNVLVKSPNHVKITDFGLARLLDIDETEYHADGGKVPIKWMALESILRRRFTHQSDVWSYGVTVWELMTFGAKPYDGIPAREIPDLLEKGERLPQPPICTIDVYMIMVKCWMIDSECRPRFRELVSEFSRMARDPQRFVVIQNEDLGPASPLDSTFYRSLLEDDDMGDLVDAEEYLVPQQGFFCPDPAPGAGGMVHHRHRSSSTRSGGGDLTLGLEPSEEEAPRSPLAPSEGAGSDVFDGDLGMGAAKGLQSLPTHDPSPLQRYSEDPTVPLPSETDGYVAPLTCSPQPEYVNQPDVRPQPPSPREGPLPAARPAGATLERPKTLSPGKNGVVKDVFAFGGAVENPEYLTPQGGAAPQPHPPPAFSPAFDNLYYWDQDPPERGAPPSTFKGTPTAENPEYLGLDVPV
Protocol: as §1, §2, §3, §4, §5

[4] = target: Ba/F3 ERBB2-P780_Y781insGSP (Homo sapiens, UniProt P04626, DUP778-780, cells depend on it); assay: Cell viability assay, Ba/F3 ERBB2-P780_Y781insGSP; assay type: cell-based, mouse; conditions: 72 hours, CellTiter Glo, read-out: IC50, cell viability, Ba/F3 ERBB2-P780_Y781insGSP
Protocol: as §1, §2, §3, §4
as §5, with “Percent viability was normalized to a vehicle control only using the following formula: % viability=100×(Lumsample−LumLC)/(LumHC−Lum^LC).” left out

[5] = target: Ba/F3 ERBB2 A775_G776insYVMA (Homo sapiens, UniProt P04626, DUP772-775, cells depend on it); assay: Cell viability assay, Ba/F3 ERBB2 A775_G776insYVMA; assay type: cell-based, mouse; conditions: Ba/F3 ERBB2 A775_G776insYVMA cells, 72 hours, CellTiter Glo; Tables B2-B4; read-out: IC50, cell viability, Ba/F3 ERBB2 A775_G776insYVMA
Sequence of Ba/F3 ERBB2 A775_G776insYVMA (P04626 with tags, fused parts or gaps DUP772-775): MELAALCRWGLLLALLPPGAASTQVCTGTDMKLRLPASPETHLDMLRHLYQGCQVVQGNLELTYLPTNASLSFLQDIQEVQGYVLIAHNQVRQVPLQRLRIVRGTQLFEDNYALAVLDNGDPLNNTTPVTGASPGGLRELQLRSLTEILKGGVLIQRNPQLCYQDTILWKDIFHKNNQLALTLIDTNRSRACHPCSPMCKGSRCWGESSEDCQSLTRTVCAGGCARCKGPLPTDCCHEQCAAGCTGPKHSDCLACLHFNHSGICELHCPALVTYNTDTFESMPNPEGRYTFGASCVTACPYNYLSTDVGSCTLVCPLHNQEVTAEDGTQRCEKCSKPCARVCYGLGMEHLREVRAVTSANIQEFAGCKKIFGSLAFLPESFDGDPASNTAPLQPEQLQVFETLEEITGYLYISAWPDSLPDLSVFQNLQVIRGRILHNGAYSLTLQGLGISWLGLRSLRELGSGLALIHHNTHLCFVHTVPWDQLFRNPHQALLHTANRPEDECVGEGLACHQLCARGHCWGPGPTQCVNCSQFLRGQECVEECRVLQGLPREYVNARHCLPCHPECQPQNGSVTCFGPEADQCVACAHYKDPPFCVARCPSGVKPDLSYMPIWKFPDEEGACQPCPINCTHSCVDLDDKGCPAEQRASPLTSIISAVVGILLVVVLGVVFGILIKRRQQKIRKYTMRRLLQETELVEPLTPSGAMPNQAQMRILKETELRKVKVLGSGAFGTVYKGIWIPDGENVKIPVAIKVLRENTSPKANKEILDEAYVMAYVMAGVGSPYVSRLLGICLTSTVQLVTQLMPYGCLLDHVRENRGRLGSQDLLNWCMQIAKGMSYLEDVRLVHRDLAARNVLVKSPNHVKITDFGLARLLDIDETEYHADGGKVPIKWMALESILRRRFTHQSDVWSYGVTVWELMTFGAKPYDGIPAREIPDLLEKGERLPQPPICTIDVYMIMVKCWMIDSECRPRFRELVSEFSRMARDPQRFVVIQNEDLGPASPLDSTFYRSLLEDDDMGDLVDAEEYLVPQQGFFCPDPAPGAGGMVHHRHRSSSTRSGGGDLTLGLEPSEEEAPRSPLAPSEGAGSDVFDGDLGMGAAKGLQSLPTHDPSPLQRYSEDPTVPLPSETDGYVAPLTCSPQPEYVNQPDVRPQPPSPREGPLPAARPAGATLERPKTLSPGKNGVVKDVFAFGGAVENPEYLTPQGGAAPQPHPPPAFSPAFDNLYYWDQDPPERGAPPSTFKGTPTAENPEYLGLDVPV
In short: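 IL-3-independent Ba/F3 lines stably expressing the human ERBB2 insertion mutants were seeded at 3000 cells/well and exposed to compounds for 72 h at 37 °C, 5% CO2. Viability was read as ATP by CellTiter-Glo luminescence. Curves were fitted by sigmoidal nonlinear regression.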

[6] = target: Ba/F3 ERBB2-L869R (Homo sapiens, UniProt P04626, L869R, cells depend on it); assay: Cell viability assay, Ba/F3 ERBB2-L869R; assay type: cell-based, mouse; conditions: 72 hours, CellTiter Glo, read-out: IC50, cell viability, Ba/F3 ERBB2-L869R
Sequence of Ba/F3 ERBB2-L869R (P04626 whole entry L869R): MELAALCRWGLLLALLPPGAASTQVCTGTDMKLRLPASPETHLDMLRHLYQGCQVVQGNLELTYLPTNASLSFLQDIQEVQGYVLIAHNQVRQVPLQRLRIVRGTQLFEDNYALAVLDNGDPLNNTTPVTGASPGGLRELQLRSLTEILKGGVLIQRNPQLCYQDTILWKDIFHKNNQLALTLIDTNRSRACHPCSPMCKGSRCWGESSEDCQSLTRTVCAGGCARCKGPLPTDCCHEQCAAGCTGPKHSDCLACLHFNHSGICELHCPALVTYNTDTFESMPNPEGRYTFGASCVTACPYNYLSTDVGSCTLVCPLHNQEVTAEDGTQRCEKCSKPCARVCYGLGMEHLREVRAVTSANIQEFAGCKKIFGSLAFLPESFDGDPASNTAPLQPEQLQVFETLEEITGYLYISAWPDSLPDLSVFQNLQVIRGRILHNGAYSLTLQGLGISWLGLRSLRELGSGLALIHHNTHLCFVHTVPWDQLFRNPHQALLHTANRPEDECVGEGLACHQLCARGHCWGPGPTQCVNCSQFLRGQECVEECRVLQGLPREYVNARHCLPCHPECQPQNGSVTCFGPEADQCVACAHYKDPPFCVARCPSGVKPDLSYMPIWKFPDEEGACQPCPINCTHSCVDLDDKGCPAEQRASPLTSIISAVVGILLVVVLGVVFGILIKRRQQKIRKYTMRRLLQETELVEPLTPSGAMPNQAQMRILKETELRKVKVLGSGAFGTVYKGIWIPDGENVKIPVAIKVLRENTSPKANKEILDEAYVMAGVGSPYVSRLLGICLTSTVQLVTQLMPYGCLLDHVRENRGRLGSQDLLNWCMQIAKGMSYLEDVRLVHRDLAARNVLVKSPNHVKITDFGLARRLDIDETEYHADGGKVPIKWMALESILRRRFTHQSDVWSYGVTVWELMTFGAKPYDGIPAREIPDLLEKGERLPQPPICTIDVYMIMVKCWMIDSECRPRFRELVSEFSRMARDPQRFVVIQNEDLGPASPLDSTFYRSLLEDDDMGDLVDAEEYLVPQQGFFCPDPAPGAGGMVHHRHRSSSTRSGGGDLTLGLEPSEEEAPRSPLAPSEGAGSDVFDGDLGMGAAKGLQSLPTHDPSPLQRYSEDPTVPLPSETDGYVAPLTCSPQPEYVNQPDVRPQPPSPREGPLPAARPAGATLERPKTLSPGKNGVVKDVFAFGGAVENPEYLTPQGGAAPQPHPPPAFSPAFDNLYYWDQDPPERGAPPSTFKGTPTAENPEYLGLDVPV
Protocol: as §1, §2, §3, §4, §5

[7] = tested on: A431; assay: Cell viability assay (CellTiter Glo), A431; assay type: cell-based; conditions: Homo sapiens, A-431, A431 cells, 72 hours
[8] = target: Ba/F3 ERBB2-V777L (Homo sapiens, UniProt P04626, V777L, cells depend on it); assay: Cell viability assay, Ba/F3 ERBB2-V777L; assay type: cell-based, mouse; conditions: 72 hours, CellTiter Glo, read-out: IC50, cell viability, Ba/F3 ERBB2-V777L
Protocol: as §1, §2, §3, §4, §5

[9] = target: Ba/F3 ERBB2-V777_G778insGC (Homo sapiens, UniProt P04626, INS778CG, cells depend on it); assay: Cell viability assay, Ba/F3 ERBB2-V777_G778insGC; assay type: cell-based, mouse; conditions: 72 hours, CellTiter Glo, read-out: IC50, cell viability, Ba/F3 ERBB2-V777_G778insGC
Protocol: as §1, §2, §3, §4, §5

[10] = tested on: BT-474; assay: Cell viability assay (CellTiter Glo), BT-474; assay type: cell-based; conditions: Homo sapiens; BT-474 cells, 72 hours, CellTiter Glo; read-out: IC50, cell viability, BT-474
[11] = target: Ba/F3 ERBB2-G776VC (Homo sapiens, UniProt P04626, DELINS776-776VC, cells depend on it); assay: Cell viability assay, Ba/F3 ERBB2-G776VC; assay type: cell-based, mouse; conditions: 72 hours, CellTiter Glo, read-out: IC50, cell viability, Ba/F3 ERBB2-G776VC
Protocol: as §1, §2, §3, §4, §5

[12] = tested on: MDA-MB-175VII; assay: Cell viability assay (CellTiter Glo), MDA-MB-175VII; assay type: cell-based; conditions: Homo sapiens; MDA MB 175VII cells, 72 hours, CellTiter Glo; read-out: IC50, cell viability, MDA MB 175VII
Protocol: as §1, §2, §3, §4, §5

[13] = target: Ba/F3 EGFR wt (Homo sapiens, UniProt P00533); assay: Cell viability assay, Ba/F3 EGFR wt; assay type: cell-based, mouse; conditions: Ba/F3 EGFR wt cells, 72 hours, CellTiter Glo; read-out: IC50, cell viability, Ba/F3 EGFR wt
Protocol: as §1, §2, §3, §4
Plates were placed in a 37° C., 5% CO2 incubator for 72 hours. Plates were then removed from the incubator and equilibrated for 15 minutes at room temperature. 40 μl of CellTiter Glo reagent (Promega) was added to measure the relative level of metabolically active cells by quantifying intracellular ATP concentrations. Plates were incubated for 30 minutes at room temperature, and luminescence was measured. […]

Row | IC50 [7] | IC50 [10] | IC50 [12] | Compound | GI50 [1] | GI50 [2] | GI50 [3] | GI50 [4] | GI50 [5] | GI50 [6] | GI50 [8] | GI50 [9] | GI50 [11] | GI50 [13]
1 | 1.14 µM | 0.0197 µM |  | C=C1CCN(c2ccc3ncnc(Nc4ccc(Oc5ccc(C)nc5)c(C)c4)c3c2)C1=O [Compound 3, 1-[4-([3-methyl-4-[(6-methylpyridin-3-yl)oxy]phenyl]amino)quinazolin-6-yl]-3-methylidenepyrrolidin-2-one] | 0.656 µM | 0.011 µM | 0.172 µM | 0.013 µM | 0.202 µM | 0.047 µM | 0.0047 µM | 0.0038 µM | 0.04 µM | 
2 | > 10 µM |  | 0.089 µM | Cc1cc(Nc2ncnc3ccc(NC4=NC(C)(C)CO4)cc23)ccc1Oc1ccn2ncnc2c1 [Tucatinib, tucatinib, reference compound] |  |  |  |  |  |  |  |  |  | > 10 µM
